In paper PMC7179167 (Molecules, 2020):
Converted amounts (≈) assume the structure as drawn. Where two headings read alike, the source gives them in different places.

Assays:
[1] = DPPH free radical scavenging assay; format: biochemical; conditions: concentration of 20µg/l, mean ± SD of three experiments
Experimental: Antioxidant activity of the newly synthesized 13a–i, 14a–i, 11a–c and 12a–c were assessed in terms of hydrogen-donating or radical-scavenging ability via the stable free radical 1,1-diphenyl-2-picrylhydrazyl (DPPH) using ascorbic acid as a reference at a concentration of […].
The free radical scavenging activity (RSA) was assessed spectrophotometically at 517 nm via decoloration of the solution of the DPPH (1,1-diphenyl-2-picrylhydrazyl) radical according to Brand-Williams et al. 1995 [32]. DPPH solution was prepared by dissolving of 20 mg of DPPH in one liter of dimethylsulphoxide (DMSO). A freshly prepared DPPH solution was used for the assay. Each of the tested compounds 11a–c, 12a–c, 13a–i, 14a–i and 15a,b were dissolved in DMSO (1mg/mL). A volume of […] of a DMSO stock solution of the test compounds was added to 2 mL of freshly prepared DPPH in DMSO solution. The mixtures were shaken in a vortex (2500 rpm) for 1 min and then left to stand for 15, 30, 45 and 60 min in the dark room. The absorbance was measured at 517 nm against blank using UV visible spectrophotometer 2401 PC (Shimadzu, Kyoto, Japan). Lower absorbance of the reaction mixture indicated higher free radical scavenging activity was analyzed from the graph plots of the inhibition percentage against the compound concentration. The experiment was carried out in triplicate and averaged. The scavenging activity was calculated according to the following formula:Scavenging ability (%) = (A517 of control - A517of sample / A 517 of control) ×100(1)

[2] = test system: HCT-116 (human colon cancer); assay: MTT cytotoxicity assay, HCT-116; format: cell-based; conditions: for inhibition at 100 µg/mL / IC50: Homo sapiens; for inhibition at 100 µg/mL: HCT-116, 100 µg/ml, 48 h, read-out: Growth Inhibition (%) HCT-116; for IC50: HCT-116, 48 h
[3] = test system: MCF-7 (human breast cancer); assay: MTT cytotoxicity assay, MCF-7; format: cell-based; conditions: for inhibition at 100 µg/mL: MCF7, 100 µg/ml, 48 h, read-out: Growth Inhibition (%) MCF-7; for IC50: MCF7, 48 h post-treatment
[4] = test system: normal skin fibroblast cells (BJ-1); assay: MTT cytotoxicity assay, normal skin fibroblast BJ-1; format: cell-based; conditions: Homo sapiens, 48 h, read-out: Growth Inhibition (%) BJ-1
[5] = test system: HepG-2 (human liver cancer); assay: MTT cytotoxicity assay, HepG-2; format: cell-based; conditions: for inhibition at 100 µg/mL: HepG2, 100 µg/ml, 48 h, read-out: Growth Inhibition (%) HepG-2; for IC50: HepG2, 48 h post-treatment
[6] = 15 min, read-out: Scavenging Activity (%) on DPPH radicals at 15 min
[7] = 30 min, read-out: Scavenging Activity (%) on DPPH radicals at 30 min
[8] = 45 min, read-out: Scavenging Activity (%) on DPPH radicals at 45 min
[9] = 60 min, read-out: Scavenging Activity (%) on DPPH radicals at 60 min

| melting point [°C] | Compound | inhibition [1, 6] [%] | inhibition [1, 7] [%] | inhibition [1, 8] [%] | inhibition [1, 9] [%] | inhibition at 100 µg/mL [2] [%] | IC50 ([2]; 48 h post-treatment) [µg/mL] | inhibition at 100 µg/mL [3] [%] | IC50 [3] [µg/mL] | inhibition at 100 µg/mL [4] [%] | inhibition at 100 µg/mL [5] [%] | IC50 [5] [µg/mL] | IC50 HCT-116 ([2]; 48 h post-treatment) [µg/mL] |
| --- | --- | --- | --- | --- | --- | --- | --- | --- | --- | --- | --- | --- | --- |
| 307 to 309 | O=C(c1ccccc1)n1cc(C2=NNC3(C2)C(=O)Nc2ccccc23)c2ccccc21 (centres unmarked) [Compound 13d, 5’-(N-Benzoyl-1H-indol-3-yl)-2’,4’-dihydrospiro(indoline-3,3’-pyrazol)-2-one] | 19.3 ± 1.24 | 31.3 ± 1.81 | 25.9 ± 1.24 | 39.7 ± 1.99 | 94.6 | 26.9 (≈ 66.2 µM) | 96.4 | 25.4 (≈ 62.5 µM) | 7 | 82.7 | 60.9 (≈ 150 µM) |  |
| 100 to 102 | O=C(c1ccccc1)n1cc(C2=NN(c3ccccc3)C3(C2)C(=O)Nc2ccccc23)c2ccccc21 (centres unmarked) [Compound 14d, 5’-(N-Benzoyl-1H-indol-3-yl)-2’-phenyl-2’,4’-dihydrospiro(indoline-3,3’-pyrazol)-2-one] | 39.9 ± 1.75 | 41.8 ± 1.49 | 45 ± 1.37 | 55.4 ± 1.33 | 96.2 | 30.7 (≈ 63.6 µM) | 94 | 31.6 (≈ 65.5 µM) | 9.5 |  |  |  |
| 124 to 126 | O=C1Nc2ccccc2C12CC(c1c[nH]c3ccccc13)=NN2c1ccccc1 (centres unmarked) [Compound 14a, 5’-(1H-Indol-3-yl)-2’-phenyl-2’,4’-dihydrospiro(indoline-3,3’-pyrazol)-2-one] | 41.1 ± 2.05 | 51.5 ± 1.91 | 54 ± 2.06 | 59.2 ± 2.14 | 91.2 | 36.2 (≈ 95.7 µM) | 90.4 | 32.3 (≈ 85.4 µM) | 14.2 |  |  |  |
| 202 to 204 | O=C(c1ccc(Cl)cc1)n1cc(C2=NNC3(C2)C(=O)Nc2ccccc23)c2ccccc21 (centres unmarked) [Compound 13f, 5’-(N-(4-Chloro-benzoyl)-1H-indol-3-yl)-2’,4’-dihydrospiro(indoline-3,3’-pyrazol)-2-one] | 17.9 ± 1.62 | 28.3 ± 1.61 | 34.3 ± 1.27 | 40.7 ± 1.54 | 86.5 | 28.4 (≈ 64.4 µM) | 79.7 | 32.1 (≈ 72.8 µM) | 16.4 | 72.8 | 83.6 (≈ 190 µM) |  |
| 152 to 154 | O=C1Nc2ccccc2C12CC(c1cn(S(=O)(=O)c3ccccc3[N+](=O)[O-])c3ccccc13)=NN2c1ccccc1 (centres unmarked) [Compound 14i, 5’-(N-(2-Nitro-benzenesulfonyl)-1H-indol-3-yl)-2’-phenyl-2’,4’-dihydrospiro(indoline-3,3’-pyrazol)-2-one] |  |  |  |  | 35.1 |  | 52.3 |  | 78.6 |  |  |  |
| 108 to 110 | CCn1cc(C2=NN(c3ccccc3)C3(C2)C(=O)Nc2ccccc23)c2ccccc21 (centres unmarked) [Compound 14b, 5’-(N-Ethyl-1H-indol-3-yl)-2’-phenyl-2’,4’-dihydrospiro(indoline-3,3’-pyrazol)-2-one] | 42.4 ± 1.45 | 58.1 ± 1.28 | 60.3 ± 1.66 | 66 ± 1.64 | 84.6 | 40.1 (≈ 98.6 µM) | 80.3 | 36.3 (≈ 89.3 µM) | 8.1 |  |  |  |
| 96 to 98 | O=C1Nc2ccccc2C12CC(c1cn(Cc3ccccc3)c3ccccc13)=NN2c1ccccc1 (centres unmarked) [Compound 14c, 5’-(N-Benzyl-1H-indol-3-yl)-2’-phenyl-2’,4’-dihydrospiro(indoline-3,3’-pyrazol)-2-one] | 14.8 ± 1.36 | 22.6 ± 1.79 | 26.3 ± 1.23 | 39.5 ± 1.61 | 91.8 | 40.5 (≈ 86.4 µM) | 92.3 | 32.5 (≈ 69.4 µM) | 13.6 |  |  |  |
| 197 to 199 | O=C1Nc2ccccc2C12CC(c1cn(S(=O)(=O)c3ccc(Cl)cc3)c3ccccc13)=NN2 (centres unmarked) [Compound 13h, 5’-(N-(4-Chloro-benzensulfonyl)-1H-indol-3-yl)-2’,4’-dihydrospiro(indoline-3,3’-pyrazol)-2-one] | 15.2 ± 1.98 | 16.3 ± 1.96 | 20.6 ± 1.48 | 35.7 ± 1.91 | 91.3 | 20.5 (≈ 43 µM) | 93.4 | 5.8 (≈ 12.2 µM) | 14.1 | 79.5 | 19.2 (≈ 40.3 µM) |  |
| 78 to 80 | O=C(c1ccccc1Cl)n1cc(C2=NN(c3ccccc3)C3(C2)C(=O)Nc2ccccc23)c2ccccc21 (centres unmarked) [Compound 14e, 5’-(N-(2-Chlorobenzoyl)-1H-indol-3-yl)-2’-phenyl-2’,4’-dihydrospiro(indoline-3,3’-pyrazol)-2-one] | 17.9 ± 1.23 | 28.2 ± 1.27 | 30.9 ± 1.98 | 34.9 ± 1.72 | 35.1 |  | 85.3 | 54 (≈ 104 µM) | 16.6 |  |  |  |
|  | O=C1O[C@H]([C@@H](O)CO)C(O)=C1O [Ascorbic acid, ascorbic acid, reference compound] | 94.4 ± 1.74 | 97.5 ± 1.32 | 98.78 ± 0.94 | 99.67 ± 0.28 |  |  |  |  |  |  |  |  |
| 132 to 134 | O=C1Nc2ccccc2C12CC(c1cn(S(=O)(=O)c3ccc(Br)cc3)c3ccccc13)=NN2c1ccccc1 (centres unmarked) [Compound 14g, 5’-(N-(4-Bromo-benzenesulfonyl)-1H-indol-3-yl)-2’-phenyl-2’,4’-dihydrospiro(indoline-3,3’-pyrazol)-2-one] | 8.39 ± 1.14 | 11.9 ± 1.23 | 14.1 ± 2.01 | 26.6 ± 2.13 | 92.1 | 38 (≈ 63.6 µM) | 90.6 | 37.4 (≈ 62.6 µM) | 16 |  |  |  |
|  | COc1cccc2c1C(=O)c1c(O)c3c(c(O)c1C2=O)C[C@@](O)(C(=O)CO)C[C@@H]3O[C@H]1C[C@H](N)[C@H](O)[C@H](C)O1 [Doxorubicin, doxorubicin, reference compound] |  |  |  |  | 100 | 21.6 (≈ 39.7 µM) | 96.8 | 37.6 (≈ 69.2 µM) | 0 | 100 | 21.6 (≈ 39.7 µM) | 26.1 (≈ 48 µM) |
| 110 to 112 | O=C1Nc2ccccc2C12CC(c1cn(S(=O)(=O)c3ccc(Cl)cc3)c3ccccc13)=NN2c1ccccc1 (centres unmarked) [Compound 14h, 5’-(N-(4-Chloro-benzenesulfonyl)-1H-indol-3-yl)-2’-phenyl-2’,4’-dihydrospiro(indoline-3,3’-pyrazol)-2-one] | 57.9 ± 1.36 | 67.3 ± 1.35 | 72 ± 1.82 | 86 ± 2.17 | 96.2 |  | 94 |  | 86.5 |  |  |  |
| 210 to 212 | O=C1Nc2ccccc2C12CC(c1cn(S(=O)(=O)c3ccccc3[N+](=O)[O-])c3ccccc13)=NN2 (centres unmarked) [Compound 13i, 5’-(N-(2-Nitro-benzensulfonyl)-1H-indol-3-yl)-2’,4’-dihydrospiro (indoline-3,3’-pyrazol)-2-one] |  |  |  |  | 97.7 |  | 97.8 |  | 69.4 | 96.8 |  |  |
| 162 to 164 | O=C(c1ccc(Cl)cc1)n1cc(C2=NN(c3ccccc3)C3(C2)C(=O)Nc2ccccc23)c2ccccc21 (centres unmarked) [Compound 14f, 5’-(N-(4-Chlorobenzoyl)-1H-indol-3-yl)-2’-phenyl-2’,4’-dihydrospiro(indoline-3,3’-pyrazol)-2-one] | 9.05 ± 1.63 | 10.2 ± 1.83 | 16.2 ± 1.21 | 22.9 ± 1.62 | 91.4 | 35.8 (≈ 69.2 µM) | 89.3 | 31.2 (≈ 60.3 µM) | 14.5 |  |  |  |
